From patent US11325937B2, “Glycoside compound and preparation method therefor, composition, application, and intermediate” (SHANGHAI HUTCHISON PHARMACEUTICALS LIMITED, priority 2018, dated 2022)
Where two headings read alike, the source gives them in different places.

Test system: VEGF-A mRNA expression in macrophages (RAW264.7)
Assay: In vitro macrophage experiment: activity of compounds to promote VEGF-A mRNA expression (RT-qPCR)
Assay type: cell-based
Conditions: Mus musculus, read-out: Expression level of VEGF-A mRNA
Text: 1.1. Specific steps for activity screening: 1-10×10^6 macrophages (RAW264.7) in logarithmic growth phase were transferred to a cell culture plate. The test compounds (Compounds TG-001, TG-002, TG-003, TG-004, TG-005, TG-006, TG-007, TG-008, TG-009, TG-010, TG-011, TG-012, TG-013, TG-014, TG-015, TG-016, TG-017, TG-018, TG-019, TG-020, TG-021, TG-022, TG-023, TG-024, TG-025, TG-026, TG-027, TG-028, TG-029, TG-030, TG-031, TG-032, TG-033, TG-034, TG-035, TG-036, TG-037, TG-045, TG-039, TG-040 TG-041, TG-042, TG-043, TG-044, TG-045, TG-052, TG-053, TG-054, TG-047, TG-048, TG-046, TG-049, TG-050, TG-051, TG-055 and TG-056) were respectively diluted into various concentrations, and separately added to the cell culture plate containing macrophage. The cells were cultured for 3 h in a complete medium (RPMI 1640 medium:fetal bovine serum:tri-resistance screening agent (i.e. penicillin-streptomycin-gentamicin, Beijing Leagene Biotechnology Co., Ltd.)=89:10:1 based on volume) in a cell incubator at 37° C. and 5% CO2. The cells were lyzed by Trizol (Beijing ComWin Biotech Co., Ltd) to extract RNA, and the RNA concentration was measured using a microvolume nucleic acid and protein analyzer (Nanodrop2000c). The required volume V of RNA was calculated according to the RNA concentration, and the RNA reverse transcription reaction system was prepared according to Table 1. Then RNA reverse transcription (cDNA synthesis) (RT Easy™ I (For first-strand cDNA synthesis) Reverse Transcription Kit, Chengdu ForeGene Biotechnology Co., Ltd.) was carried out according to the conditions described in Table 2. The resulting cDNA was used to prepare a fluorescence quantitative PCR reaction solution according to Table 3. The fluorescence quantitative PCR reaction conditions were set according to Table 4, and the fluorescence quantitative PCR reaction (Real time PCR Easy™-SYBR Green Fluorescence Quantification Kit, Chengdu ForeGene Biotechnology Co., Ltd.) was performed using cDNA from the reverse transcription reaction as a template. The relative expression level 2^−ΔΔCt of the target gene was calculated from the Ct value of each sample with the blank control group as a control and β-Actin as an internal reference.
Based on the maximum level of VEGF-A mRNA expression promoted by a drug at a certain concentration, the activity of the drug was determined. The expression level of VEGF-A mRNA in macrophages was defined as 1 when no drug was added. Using a traditional Chinese medicine injection Salvianolate that is used in the treatment of Cardio-cerebrovascular disease and promotes a maximum level of VEGF-A mRNA expression of 6 in macrophages (the results are shown in Table 5) as a judgment standard, the compound promoting a maximum level of VEGF-A mRNA expression of 4 or more in macrophage was a target compound. That is, when the maximum level of VEGF-A mRNA expression in macrophages promoted by the test compound is over 4-fold higher than the expression level of VEGF-A mRNA in macrophages without the addition of the test compound, the test compound was a preliminary target compound promoting angiogenesis.

[1] = 1 μM, RAW264.7 macrophages, 3 h, relative expression 2^-ΔΔCt, no drug = 1
[2] = 0.1 mM, RAW264.7 macrophages, 3 h, relative expression, no drug = 1
[3] = 0.5 mM, RAW264.7 macrophages, 3 h, relative expression, no drug = 1
[4] = 1 mM, RAW264.7 macrophages, 3 h, relative expression, no drug = 1
[5] = 2 mM, RAW264.7 macrophages, 3 h, relative expression, no drug = 1
[6] = 3 mM, RAW264.7 macrophages, 3 h, relative expression, no drug = 1

SMILES	fold induction at 1 µM [1]	fold induction at 100 µM [2]	fold induction at 500 µM [3]	fold induction at 1000 µM [4]	fold induction at 2000 µM [5]	fold induction at 3000 µM [6]	fold induction at 1 µM (RAW264.7, 3 h)	fold induction at 100 µM (RAW264.7, 3 h)	fold induction at 500 µM (RAW264.7, 3 h)	fold induction at 1000 µM (RAW264.7, 3 h)	fold induction at 2000 µM (RAW264.7, 3 h)	fold induction at 3000 µM (RAW264.7, 3 h)
OC[C@H]1O[C@@H](OCCCCc2ccc(OCc3ccc(C(F)(F)F)cc3)cc2)[C@H](O)[C@@H](O)[C@@H]1O [TG-026]	1.44	6.85	7.92	8.13	7.92	8.16	–	–	–	–	–	–
OC[C@H]1O[C@@H](OCCCCc2ccc(OCc3cccc(F)c3)cc2)[C@H](O)[C@@H](O)[C@@H]1O [TG-027]	1.66	6.36	3.83	3.93	1.07	0.43	–	–	–	–	–	–
COc1ccc(CCCCO[C@H]2O[C@@H](CO)[C@H](O)[C@@H](O)[C@@H]2O)cc1 [TG-029]	2.21	1.51	1.02	1.54	2.6	2.3	–	–	–	–	–	–
COc1ccc(CCCCO[C@@H]2O[C@H](CO)[C@H](O)[C@H](O)[C@H]2O)cc1 [TG-030]	0.43	0.32	0.09	0.19	0.19	0.37	–	–	–	–	–	–
COc1ccc(OCCCO[C@@H]2O[C@H](CO)[C@@H](O)[C@H](O)[C@H]2O)cc1 [TG-031]	–	–	–	–	–	–	0.2	0.18	0.11	2.57	1.39	0.7
COc1ccc(COCCO[C@@H]2O[C@H](CO)[C@@H](O)[C@H](O)[C@H]2O)cc1 [TG-032]	–	–	–	–	–	–	2.79	4.89	0.92	3.68	1.83	0.96
COc1ccc(CN(CCO[C@@H]2O[C@H](CO)[C@@H](O)[C@H](O)[C@H]2O)C(=O)OC(C)(C)C)cc1 [TG-033]	–	–	–	–	–	–	0.95	1.87	38.9	3.76	0.99	0.04
COc1ccc(CN(CCO[C@@H]2O[C@H](CO)[C@@H](O)[C@H](O)[C@H]2O)C(=O)OCc2ccccc2)cc1 [TG-034]	–	–	–	–	–	–	1.36	1.32	4.44	2.93	7.16	5.43
COc1ccc(N(CCCO[C@@H]2O[C@H](CO)[C@@H](O)[C@H](O)[C@H]2O)C(=O)OCc2ccccc2)cc1 [TG-035]	–	–	–	–	–	–	1.66	0.44	1.72	1.06	0.55	0.2
COc1ccc(CNCCO[C@@H]2O[C@H](CO)[C@@H](O)[C@H](O)[C@H]2O)cc1 [TG-036]	–	–	–	–	–	–	1.19	1.39	0.32	1.09	0.43	1.75
COc1ccc(NCCCO[C@@H]2O[C@H](CO)[C@@H](O)[C@H](O)[C@H]2O)cc1 [TG-037]	–	–	–	–	–	–	1.3	0.62	1.77	1.69	1.8	3.23
CC(C)Oc1ccc(CCCCO[C@@H]2O[C@H](CO)[C@@H](O)[C@H](O)[C@H]2O)cc1 [TG-038]	0.79	1.06	0.96	1.71	1.32	1.29	–	–	–	–	–	–
OC[C@H]1O[C@@H](OCCCCc2ccc(OCC3CC3)cc2)[C@H](O)[C@@H](O)[C@@H]1O [TG-039]	1.18	2.67	9.43	1.7	0.3	0.18	–	–	–	–	–	–
CC(C)(C)CCOc1ccc(CCCCO[C@@H]2O[C@H](CO)[C@@H](O)[C@H](O)[C@H]2O)cc1 [TG-040]	2.09	3.97	1.46	0.81	0.22	0.28	–	–	–	–	–	–
CC(C)(C)COc1ccc(CCCCO[C@@H]2O[C@H](CO)[C@@H](O)[C@H](O)[C@H]2O)cc1 [TG-041]	0.62	0.84	1.97	8.17	0.16	0.23	–	–	–	–	–	–
CC1(C)CCOc2ccc(CCCCO[C@@H]3O[C@H](CO)[C@@H](O)[C@H](O)[C@H]3O)cc21 [TG-042]	11	7.25	9.86	1.11	0.63	0.84	–	–	–	–	–	–
CCCCCCCCCCCCCCCCOc1ccc(CCCCO[C@@H]2O[C@H](CO)[C@@H](O)[C@H](O)[C@H]2O)cc1 [TG-043]	1.16	1.52	–	3.36	4.09	4.29	–	–	–	–	–	–
COCCOCCOCCOCCOc1ccc(CCCCO[C@@H]2O[C@H](CO)[C@@H](O)[C@H](O)[C@H]2O)cc1 [TG-044]	0.65	1.18	1.56	1.04	0.79	0.95	–	–	–	–	–	–
COc1ccc(CCCCO[C@@H]2O[C@H](CO)[C@@H](O[C@@H]3OC(CO)[C@H](O)[C@H](O)[C@H]3O)[C@H](O)[C@H]2O)cc1 (some centres unmarked) [TG-045]	0.62	0.99	0.62	0.73	1.78	0.35	–	–	–	–	–	–
COc1ccc(CCCCO[C@H]2O[C@H](CO)[C@@H](O)[C@H](O)[C@H]2O)cc1 [TG-046]	1.86	1.96	2.14	2.27	2.25	5.32	–	–	–	–	–	–
COc1ccc(CCS[C@@H]2O[C@H](CO)[C@@H](O)[C@H](O)[C@H]2O)cc1 [TG-047]	2.12	1.93	2.34	2.84	2.6	3.45	–	–	–	–	–	–
COc1ccc(CCCCS[C@@H]2O[C@H](CO)[C@@H](O)[C@H](O)[C@H]2O)cc1 [TG-048]	1.43	1.26	4.73	11	3.81	2.19	–	–	–	–	–	–
OC[C@H]1O[C@@H](OCCCCc2ccc(OCc3ccccc3F)cc2)[C@H](O)[C@@H](O)[C@@H]1O [TG-050]	1.27	2.81	1.85	2.16	1.74	15.1	–	–	–	–	–	–
